Measured values from patent US20260355318A1, “MOLECULAR MACHINES FOR TREATMENT OF CANCER, FUNGAL INFECTIONS, OR BACTERIAL INFECTIONS” (priority 2022, published 2026).
In brackets after ≈: the same amount, converted by molar mass.

How the values were obtained:
T. rubrum = assay: MIC, MMs and antifungals, T. rubrum; format: cell-based, Trichophyton rubrum (ATCC 10218); settings: Trichophyton rubrum, read-out: MIC of antifungal agent
Protocol: Cell suspensions for susceptibility testing (MMs and conventional antifungals) were prepared per the Clinical & Laboratory Standards Institute (CLSI) guidelines (CLSI, 2017; CLSI, 2008). Before testing, yeasts (C. albicans and S. cerevisiae) were sub-cultured in Sabouraud Dextrose Agar-Emmons Modification (SDAE) plates and grown for 24 h at 30 °C. Five independent colonies from 24-h-old plates were collected and diluted to ~10^4 colony forming units (CFU) per mL in sterile saline (CLSI, 2017). Molds (A. fumigatus and the dermatophytes T. rubrum and M. gypseum) were sub-cultured on SDAE medium and incubated for 7 days at 28 °C. Conidia were recovered by covering the plates with sterile distilled water and scraping the colonies. The suspensions were filtered (8-μm pore size) and diluted in saline to ~10^4 CFU mL^−1 (Santos and Hamdan, 2005).
After a 30-min incubation in the dark, cell suspensions were transferred to small, sterilized glass beakers, which were then placed in a water bath. Each sample was irradiated with 405-nm light at 292 mW cm^−2 for 5 min, corresponding to a light dose of 87.6 J cm^−2, determined using an S415C thermal power sensor (Thorlabs, Newton, MA, USA). During irradiation, the cell suspensions were agitated with a small metal stirrer. […]

C. albicans = assay: MIC, visible-light-activated MMs and conventional antifungals, C. albicans; format: cell-based, Candida albicans (ATCC 18804); settings: Candida albicans, read-out: MIC of antifungal agent
Method in brief: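 C. albicans suspensions (~10^4 CFU/mL in saline, CLSI) incubated 30 min in the dark with MMs, then irradiated with stirring at 405 nm, 292 mW cm^−2 for 5 min (87.6 J cm^−2). Cells then grown in MOPS-buffered RPMI 1640 (pH 7.0) at 30 °C for 48 h; MIC is lowest concentration with no visible growth; conventional antifungals tested likewise.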

[1] = system: biofilms of P. aeruginosa and S. aureus; assay: Biofilm total bacterial cell number (acridine orange); format: cell-based, Pseudomonas aeruginosa, Staphylococcus aureus; settings: 2×MIC, vs untreated controls
Protocol: (§1) This combination of methods is effective at evaluating the antibiofilm potential of chemicals (Stiefel et al., 2016). P. aeruginosa and S. aureus were grown overnight in tryptic soy broth (TSB) medium. The overnight cultures were diluted in 1:100 in fresh media and 100 μL aliquots were distributed in a 96-well plate. After 24 h of static growth at 37 ° C, planktonic cells were removed by inverting the plate onto a stack of paper towels, and the biofilm was washed three times with PBS. After washing, MM 1, MM 5, or MM 6 were added at 2×MIC to the biofilm and incubated statically in the dark for 60 min. The biofilm was then irradiated for 15, 30, or 45 min at 146 mW cm2. For the determination of the total bacterial number, acridine orange solution (2% in H2O) diluted 1:100 in Walpole's buffer (27.2 g L-1 sodium acetate trihydrate, adjusted to pH 4 with glacial acetic acid) was added to the wells.

S. aureus [2] = assay: G. mellonella burn wound infection model, S. aureus; format: in vivo, Galleria mellonella; settings: S. aureus-infected G. mellonella, 1×MIC
Protocol: (§2) Animal studies were conducted in the burn wound model Galleria mellonella recently described (Maslova et al., 2020). […] Larvae were sorted into Petri dishes lined with Whatman filter paper (Fisher Scientific, Pittsburgh, PA) and stored at 4 ° C until use. The larval bodies were sterilized with 70% ethanol. The burn was generated using a soldering iron (Weller WE1010 ESD-Safe Digital 70-Watt Soldering Station, 120V, Weller Company, Easton, PA, USA) to achieve a consistent burn area of ≈2 mm^2 in the middle section of the back of larvae. This location was chosen so the wound could be easily visualized without having to physically manipulate the larvae. Immediately post-burn, the wound was inoculated with 10 μL of 1:10 dilution of an overnight culture of A. baumannii or S. aureus. […] In order to minimize any potential temperature effects, a constant flow of 0.2 μm pore-size-filtered air was provided to the surface of the worm. Dark 1% DMSO controls were also included. The mortality of larvae post-treatment was monitored for up to 7 days. Mortality was recorded by complete melanization of the larval body and complete loss of motility. A brief overview of the protocol is schematically depicted in FIG. 44A. Work in Galleria mellonella was reviewed and approved by the Office of Sponsored Projects and Research Compliance (SPARC) of Rice University.

[3] = system: biofilms of P. aeruginosa and S. aureus; assay: Biofilm metabolically active cells (ATP); format: cell-based, Pseudomonas aeruginosa, Staphylococcus aureus; settings: 2×MIC, antibiotics 45 min, MMs 15 min + light, vs untreated
Protocol: as §1
For quantification of viable cells in biofilms, following the addition of 100 μL […] of TSB to each well, bacteria were detached from the biofilm by thorough mixing, after which […] of BacTiter-Glo™ reagent, prepared according to the manufacturer's instructions, was added to each well.

S. aureus [4] = assay: MIC, S. aureus; format: cell-based, Staphylococcus aureus; settings: Staphylococcus aureus, read-out: Antibiotic MIC
Protocol: (§3) The appropriate volume of an MM stock at 8 mM necessary to achieve a concentration ranging from 0.3125 to 40 μM was pipetted into a 2 mL microcentrifuge tube to which 1 mL of cell suspension prepared as previously described was added. Corresponding negative controls (DMSO only) were prepared in the same way. The mixture was gently mixed by pipetting and incubated in the dark at 30 or 37 ° C, depending on the strain, for 30 min with agitation (220 rpm). Afterward, MM- or DMSO-treated cells were dispensed in one well of a 24-well plate positioned in the center of the light beam (405 nm LED Light, Prizmatix, UHP—F-5-405) placed at the appropriate distance necessary to achieve the desired light intensity of 304 mW cm-2, 146 mW cm2 or 87 mW cm2, as measured with a handheld digital power meter console coupled to an S415C thermal power sensor head (Thorlabs, Newton, MA, USA). The temperature during irradiation was monitored using a thermocouple probe (Model SC-TT-K-30-36-PP; Omega Engineering, Inc., Stanford, CT, USA). Samples were agitated during irradiation. Dark controls were prepared as previously described except that no irradiation was provided.
(§4) For MIC determination, samples treated with a range of concentrations of the different MM, as described above and were irradiated one at a time for 5 min at 146 mW cm^−2 (43.8 J cm^−2), after which irradiated aliquots were collected and inoculated into 1 mL MHB in a 2 mL microcentrifuge tube. Samples were incubated overnight at 30 or 37 ° C, depending on the strain, without agitation. Corresponding non-irradiated samples and negative controls (without bacteria) were also included. The following day, cultures were inspected for growth and the MIC was identified. The experimental procedure used to determine the MIC of visible light-activated MMs is schematically depicted in FIG. 26.

A. baumannii [5] = assay: MIC, A. baumannii; format: cell-based, Acinetobacter baumannii; settings: A. baumannii, broth microdilution
Protocol: as §3, §4

A. baumannii [6] = assay: G. mellonella burn wound infection model, A. baumannii; format: in vivo, Galleria mellonella; settings: A. baumannii-infected G. mellonella, 1×MIC
Protocol: as §2

## Cc1cc(C2CCCCC2)n(O)c(=O)c1 [Ciclopirox (CPX), Ciclopirox]
T. rubrum
  MIC: 0.5 µg/mL
C. albicans
  MIC: 1 µg/mL

## NC[C@H]1O[C@H](O[C@H]2[C@H](O)[C@@H](O[C@H]3O[C@H](CO)[C@@H](O)[C@H](N)[C@H]3O)[C@H](N)C[C@@H]2N)[C@H](N)C[C@@H]1O [Tobramycin]
[1]
  reduction in total bacterial cell number in biofilm: up to 43%
S. aureus [2]
  mortality after 7 days: 33%
[3]
  reduction in metabolically active cells in biofilm: 27%
S. aureus [4]
  MIC: 4 µg/mL (≈ 8.56 µM)

## Polymyxin B [reference compound]
A. baumannii [5]
  Antibiotic MIC: 0.125 μg per mL
A. baumannii [6]
  mortality after 7 days: 69%
